{
  "source": "patent US20180085345A1",
  "about": "“METHODS OF TRACKING SKIN CONDITIONS USING CYCLOLIGNAN COMPOUNDS” (m. Alphabet 2, L.L.C., priority 2015, published 2018)",
  "key": {"[1]": {"settings": "cited from earlier work"}, "[2]": {"test_system": "actinic keratoses", "experiment": "Randomized, blinded study of topical picropodophyllin solution in actinic keratoses: lesion count in the treatment area", "assay_type": "in vivo, patients", "settings": "topical twice daily for 1 week", "method": "To date, 56 patients have been studied to determine the efficacy of picropodophyllin in treating actinic keratoses. The patients were randomized into four groups, and the patients in each group were treated with a solution containing either 0.5%, 1.25%, or 2.0% picropodophyllin (w/v) in propylene glycol, or a placebo constituting only the vehicle propylene glycol. The picropodophyllin solution was prepared in 100% propylene glycol solution. The solutions were prepared aseptically following GMP protocols. The affected areas of the body variously included the scalp, face, arms, and legs. Without knowing which one of the four solutions they were applying, the subjects self-applied one of the solutions to the skin. After initial application, the subjects gently massaged the solutions into their skin. This was done twice daily for 1 week. Lesions (actinic keratosis) were palpated and visualized by a trained lesion counter who is a board certified dermatologist. The same investigator evaluated each subject at each visit for consistency. The subjects were evaluated at baseline, day 3, day 7, day 14, day 28, day 56 and day 90. Within the treatment area, the number of lesions were counted, regardless of their size. The change in the number of lesions (% decline from baseline) within the treatment area was calculated and the results are shown in the table below: […]"}, "[3]": {"test_system": "insulin-like growth factor-1 (IGF-1)", "settings": "shown in WO 02/102804; cited from earlier work"}},
  "data": [
    {"smiles": "COc1cc([C@@H]2c3cc4c(cc3[C@H](O)[C@H]3COC(=O)[C@@H]23)OCO4)cc(OC)c1OC", "note": "[PPP, picropodophyllin]", "values": [
      {"measurement": "solubility in water", "setting": "[1]", "value": "nearly completely insoluble"},
      {"measurement": "% Decline from Baseline (number of lesions within the treatment area)", "setting": "[2]; 0.50% w/v in propylene glycol, 28 days", "value": "−56^AB %"},
      {"measurement": "% Decline from Baseline (number of lesions within the treatment area)", "setting": "[2]; 0.50% w/v in propylene glycol, 56 days", "value": "−82^AB %"},
      {"measurement": "% Decline from Baseline (number of lesions within the treatment area)", "setting": "[2]; 0.50% w/v in propylene glycol, 90 days", "value": "−90^AB %"},
      {"measurement": "% Decline from Baseline (number of lesions within the treatment area)", "setting": "[2]; 1.25% w/v in propylene glycol, 28 days", "value": "−53^AB %"},
      {"measurement": "% Decline from Baseline (number of lesions within the treatment area)", "setting": "[2]; 1.25% w/v in propylene glycol, 56 days", "value": "−73^AB %"},
      {"measurement": "% Decline from Baseline (number of lesions within the treatment area)", "setting": "[2]; 1.25% w/v in propylene glycol, 90 days", "value": "−65^AB %"},
      {"measurement": "% Decline from Baseline (number of lesions within the treatment area)", "setting": "[2]; 2.00% w/v in propylene glycol, 28 days", "value": "−17", "unit": "%"},
      {"measurement": "% Decline from Baseline (number of lesions within the treatment area)", "setting": "[2]; 2.00% w/v in propylene glycol, 56 days", "value": "−55^AB %"},
      {"measurement": "% Decline from Baseline (number of lesions within the treatment area)", "setting": "[2]; 2.00% w/v in propylene glycol, 90 days", "value": "−84^AB %"},
      {"measurement": "inhibition of insulin-like growth factor-1 (IGF-1)", "setting": "[3]", "value": "potent inhibitor"}
    ]}
  ]
}
